Test results: a melting point compilation (Tetko et al.; mined from patent text by program, amines drawn as free bases though some values may be those of a salt)

Row | melting point | SMILES
1 | 180 °C | Cc1sc(S(=O)(=O)NC(C)(C)CO)cc1NC(=O)c1cnn2c(C(F)F)cc(-c3ccc(C(F)(F)F)cc3)nc12
2 | 173 to 174 °C | CN(C1CCN(Cc2ccsc2)CC1)S(=O)(=O)c1ccc(Nc2nccc(Nc3ccc(F)cc3)n2)cc1
3 | 77 °C | Cc1ccc(S(=O)(=O)N2[C@H](CCCCc3nnnn3C)CC[C@@H]2c2ccc(F)cc2)cc1 (racemic)
4 | 94 to 96 °C | CC(C)(C)OC(=O)N1CCC(c2ccc(COc3cccc([N+](=O)[O-])c3)nc2)CC1
5 | 193 °C | CNc1nc(Nc2cccc(OCCNC(=O)OC(C)(C)C)c2)ncc1[N+](=O)[O-]
6 | 228 to 230 °C | COc1cc2c(Nc3ccc(Sc4nccn4C)c(Cl)c3)c(C#N)cnc2cc1-c1ccc(CN2CCOCC2)c(CN2CCOCC2)c1
7 | 158 to 159 °C | OCC(O)(Cc1ccc(Cl)cc1Cl)c1cccnc1 (centres undefined)
8 | 164 to 170 °C | NS(=O)(=O)c1ccc(-n2nc(CCCNC(=O)NC3CCCCCC3)cc2-c2ccccc2)cc1
9 | 196 to 197 °C | O=C(O)c1ccc(OCCCON=Cc2cc3ccccc3n2Cc2ccccc2)c(-c2ccc(C(F)(F)F)cc2)c1
10 | 193 to 195 °C | CCN1c2cc(N)ccc2N(C)C(=O)c2cccnc21
11 | 138 °C | COCCn1ccc2cc(NC(=O)/C=C/c3ccc(C(C)(C)C)cc3)ccc21
12 | 70 to 71 °C | O=C(O)/C=C/c1cnc(-c2ccc(O)c(C34CC5CC(CC(C5)C3)C4)c2)cn1
13 | 114 to 116 °C | Cc1ccc(NC(=O)C(C)C)c(-c2ccnc(SC(F)(F)F)n2)c1
14 | 243 to 244 °C | O=C(CCCN1CCC(NC(=O)c2ccccc2)CC1)c1ccc(Cl)cc1
15 | 192 to 193 °C | CN(C(=O)OC(C)(C)C)c1cc(Oc2ccc(-c3nnn(C(c4ccccc4)(c4ccccc4)c4ccccc4)n3)cc2)ccc1N
16 | 286 °C | COC(=O)c1cc(O)c2nc(C)n(C)c2c1
17 | 148 to 151 °C | CCc1cccc2c3c([nH]c12)C(C)(CC(=O)O)CCCC3 (centres undefined)
18 | 118 to 121 °C | COc1ccc(Cl)cc1NC(=O)[C@H]1[C@H](c2ccc(S(N)(=O)=O)cc2)C12CCCCC2 (relative stereo)
19 | 229 to 234 °C | O=C(NC(=O)c1c(F)cccc1F)Nc1ccc(-c2ccc(Cl)cc2)cn1
20 | 92 to 94 °C | CS(=O)(=O)Nc1ccccc1OCCCN1CCC(OC(c2ccsc2)c2ccsc2)CC1
21 | 143 °C | CCCOc1cc(Cn2[nH]c(N)cc2=O)ccc1Cl
22 | 48 °C | CS(=O)c1ncc(Cl)cn1 (centres undefined)
23 | 196 to 198 °C | CCOC(=O)c1c(N)c2ccc(C)nc2n(CC)c1=O

Row | melting point | SMILES
24 | 145 to 146 °C | CCOC(=O)c1[nH]cc(-c2ccc(F)cc2)c1-c1ccccc1
25 | 170 to 171 °C | Cc1nnc(-c2ccc3occ(-c4ccc(SC(F)(F)F)cc4)c3c2)o1
26 | 206 to 209 °C | O=C(CNC(=O)c1ccccc1C(=O)O)Nc1ccc(C(=O)C[N+](=O)[O-])c(Cl)c1
27 | 119 to 121 °C | CCC(C)C[C@@H]1O[C@H](CC(=O)Nc2cccc(OC(F)(F)C(=O)O)c2)C(=O)N(CC(C)(C)CO)c2ccc(Cl)cc21 (some centres undefined)
28 | 96 to 98 °C | O=C1c2ccccc2CCC1n1cncn1 (centres undefined)
29 | 135 to 136 °C | COCCNC(=O)c1cccc(-c2cccc3c(C)c(Cc4cccc(C(F)(F)F)c4)sc23)c1
30 | 75 to 85 °C | CCCSC1=NSc2ccccc2N1Cc1ccc(-c2ccccc2C(=O)O)cc1
31 | 254 to 255 °C | CS(=O)(=O)c1cccc(NC(=O)c2cnn3ccc(-c4ccc(C(F)(F)F)cc4)nc23)c1
32 | 285 °C | CCOC(=O)c1cnc2c(F)c(Br)c(F)cc2c1O
33 | 88 °C | CC(C)C[C@H](NC(=O)N1CCN(c2ccccc2)CC1)C(=O)OCc1ccccc1
34 | 171 to 172 °C | COc1ccccc1N1CCN(CCCNC(=O)c2cccc3c(=O)c(C)c(C4(c5ccccc5)CCCC4)oc23)CC1
35 | 146 °C | COC(=O)c1sccc1NC(=O)CC#N
36 | 236 to 237 °C | N#Cc1ccccc1N1CCN(Cc2nc3ccccc3[nH]2)CC1
37 | 93 to 95 °C | COc1ccc2c(c1)CC(C)(CN1CCN(c3ccccc3)CC1)NC2=O (centres undefined)
38 | 120 to 123 °C | CC(C)(C)OC(=O)N1CCCC(c2ccc3c(c2)C2(CO3)C(=O)Nc3ccccc32)C1 (centres undefined)
39 | 103 to 104 °C | CC(C)CC(NC(=O)OCc1ccccc1)C(=O)NC(Cc1ccc2ccccc2c1)C(=O)CSCc1ccco1 (centres undefined)
40 | 289 to 290 °C | COc1cc(OC)c2c(=O)[nH]c(-c3cccc(-c4ccc(S(C)=O)s4)c3)nc2c1 (centres undefined)
41 | 137 to 139 °C | CCCc1c(COc2ccc(Cc3nnn(Cc4nnn[nH]4)n3)cc2)ccc(C(C)=O)c1O
42 | 120 to 122 °C | O=C1CCCN1C(=O)Oc1ccccc1
43 | 120 °C | CC1(C)OCc2cc(Cl)cc(C(O)c3cn(C(c4ccccc4)(c4ccccc4)c4ccccc4)cn3)c2O1 (centres undefined)
44 | 126 to 129 °C | CCC1=C(c2cccc(F)c2)C(=O)N(c2ccc(Cl)c(C(F)(F)F)c2)C1
45 | 248 °C | CCn1nc(C)c(NC(N)=S)c1C
46 | 237 to 239 °C | CC(=O)NC[C@H]1CN(c2ccc(C(=O)c3ccc4ccc(C)cn34)cc2)C(=O)O1

Row | melting point | SMILES
47 | 185 to 187 °C | CCc1cccc2c1OC(C(F)(F)F)C(C(=O)O)=C2 (centres undefined)
48 | 77 to 79 °C | O=C(c1c(F)cccc1F)N1COCN(c2ccc(SC(F)F)cc2F)C1=O
49 | 180 to 181 °C | COc1ccc(OC2COc3ccc(OCc4nc5cc(F)ccc5s4)cc3C2O)cc1 (centres undefined)
50 | 158 °C | CC1(C)Cc2c(c(N3CCCCC3)nc3sc4c(NCCN5CCOCC5)ncnc4c23)CO1
51 | 125 to 127 °C | COc1ccc([C@@H]2CC(=O)N3C(=O)CC[C@H]23)cc1 (relative stereo)
52 | 135 to 136 °C | Cc1ccc(C(=S)c2cc(C(C)(C)C)c(O)c(C(C)(C)C)c2)cc1
53 | 247 to 251 °C | O=C(COc1ccc(-c2ccccc2)cc1)Nc1cscc1C(=O)O
54 | 204 to 209 °C | CSc1cc(C)c2ccc(N)nc2n1
55 | 156 to 157 °C | CC(C)(C)NC(=NC#N)Nc1cc(F)cc(Cl)c1
56 | 172 °C | CN1CCC(=C2c3ccccc3CCn3cc(-c4ccccc4)nc32)CC1
57 | 273 °C | COc1c2c(c(OC(C)=O)c3c1C(=O)c1c(cc(OC(C)=O)c(C)c1OC(C)=O)C3=O)-c1c(cc3cnn(-c4ccccc4)c(=O)c3c1OC(C)=O)CC2
58 | 147 to 148 °C | CCCOc1cc(N(CC)CC)ccc1-c1nc2cc3c(cc2[nH]1)C(C)(C)CC(=O)N3
59 | 205 to 210 °C | Nc1cc(N2CCN(C(=O)COc3cccc4ccccc34)CC2)nc(N)n1
60 | 110 °C | CS/C=C(/C)n1c(=O)n(C)c2cc(F)ccc21
61 | 163 to 165 °C | COC(=O)C1=C(O)c2ccccc2S(=O)(=O)N1C
62 | 56 °C | COC(=O)C(C(=O)OC)=C(/C=C/Cl)CCl
63 | > 290 °C | Nc1cc(NC(=O)Nc2ccccc2)ccn1
64 | 174 to 175 °C | Cn1nnc(-c2ccc(OCC(O)CNCCOc3ccc(O)c(C(N)=O)c3)cc2)n1 (centres undefined)
65 | 175 to 176 °C | NC(=O)c1cc2c(Oc3cccc(C(F)(F)F)c3)cncc2s1
66 | 174 to 176 °C | CCCCc1nc2c(N)nc3cc(-c4ccccc4OCCC)ccc3c2n1CC(C)C
67 | 171 °C | O=C(Nc1ccc(-c2ccc(C(=O)N3CCN4CCC3CC4)o2)cc1)Nc1cccc(C(F)(F)F)c1
68 | 197 to 200 °C | CNS(=O)(=O)c1ccc(Nc2nc(N)c(C(=O)c3sccc3C)s2)cc1
69 | 148 °C | O=c1ccc(Oc2ccccc2)n[nH]1

Row | melting point | SMILES
70 | 87 to 88 °C | Cc1nc(-c2cccc([N+](=O)[O-])c2)cs1
71 | 156 to 158 °C | NCC1CCc2[nH]c3cc(Cl)c(Cl)cc3c2C1 (centres undefined)
72 | 225 to 230 °C | CCOC(=O)c1cn(-c2nc(N)c(F)cc2F)c2c(F)c(F)c(F)c(N)c2c1=O
73 | 138 °C | CC(C)C1CC(=O)C(C(=O)Nc2ccc(Cl)c(Cl)c2)C(=O)C1 (centres undefined)
74 | 190 °C | CC(=O)Nc1cc(C)cc(Br)n1
75 | 163 to 164 °C | O=C(c1ccc(Cl)cc1)N1CCC(=Cc2ccc(C3=NCCO3)cc2)CC1
76 | 164 to 165 °C | c1ccc(CN(Cc2ccccc2)c2nccc(-c3ccc(-c4ccc(N(c5ccccc5)c5ccccc5)cc4)cc3)n2)cc1
77 | 172 °C | CCC(C(=O)c1ccc(Cl)cc1)n1ncn(-c2ccc(N3CCN(C(=O)Cc4ccccc4)CC3)cc2)c1=O (centres undefined)
78 | 175 to 180 °C | CCCc1c2c(cc3[nH]c(=O)c(=O)oc13)CCCC2
79 | 217 to 218 °C | CC(C)c1cc(C(C)C)c(NC(=O)CN2CCN(CCSc3nc4ccccc4[nH]3)CC2)c(C(C)C)c1
80 | 165 to 166 °C | Cc1c(NC(=O)c2cc3c(s2)C(O)CCC3)cccc1-c1cn(C)c(=O)c(Nc2ccc(C3C(=O)N(C)CCN3C)cc2)n1 (centres undefined)
81 | 119 to 121 °C | CNC(=S)CC(=S)N(c1c(C)cccc1C)C(C)C(=O)OC (centres undefined)
82 | 198 to 200 °C | Cn1nc(-c2c(F)cccc2Cl)nc1C(C)(O)c1ccc(Cl)cc1 (centres undefined)
83 | 138 to 139 °C | CC1(c2nc(-c3ccc(Cl)cc3)c(CCC(=O)O)o2)CCCCC1
84 | 210 °C | Cn1cc(-c2cncc(OC3SCC(O)C(O)C3O)c2)c(C(F)(F)F)n1 (centres undefined)
85 | 107 to 110 °C | NN=CNc1nc(CSCCN=CNS(=O)(=O)c2ccc(Br)cc2)cs1
86 | 236 °C | Oc1ccc(-c2csc(S)n2)cc1O
87 | 134 °C | CCCCCCCNC(=O)Nc1ccccc1C(=O)NC1CCN(Cc2ccccc2)CC1
88 | > 250 °C | Nc1cc(C[C@H](Nc2nc3ccc(Cl)cc3cc2C(=O)O)C(=O)O)ccc1Oc1nc2ccc(Cl)cc2cc1C(=O)O
89 | 68 to 70 °C | COc1ccc(CCc2c(Cc3ccccc3)sc3ccccc23)cc1
90 | 202 to 205 °C | CCN(CC)Cc1cc(/C=C/C(=O)Nc2ccccc2C(=O)O)ccc1OC

Row | SMILES | melting point
91 | CC12CCC(=O)C(CSc3ccccc3)=C1CCC1C2CCC2(C)C1C=CC2(C)O (centres undefined) | 147 °C
92 | OC1(Cl)C=CC=CC1(O)Cl (centres undefined) | 113 to 114 °C
93 | N#Cc1nn(-c2c(Cl)cc(C(F)(F)F)cc2Cl)c(N)c1OC(F)F | 152 to 154 °C
94 | Cc1cc(O)cc2c1N(C)C1N(C)CCC21C (centres undefined) | 146 to 148 °C
